Reference: patent US7220784B2, “Substituted stilbenes and their reactions” (priority 2000, dated 2007)
pIC50: −log10 of the molar value. Where two headings read alike, the source gives them in different places. One block for each compound: values may come before it.

Experiments:
[1] = system: A2780; assay: Cytotoxicity/growth inhibition assay (MTT), A2780; format: cell-based; details: for pIC50: read-out: A2780 IC50; for IC50: read-out: IC50 (nM) A2780
How it was run: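 MTT cytotoxicity/growth-inhibition assay in human cell lines including A2780, A2780/ADR, H460 and HUVEC.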

[2] = system: P388 murine leukaemia cell line; assay: Cytotoxicity/growth inhibition assay (MTT), P388; format: cell-based
How it was run: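 Growth inhibition of P388 murine and K562 human leukaemia cells measured by MTT assay.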

[3] = system: HUVEC; assay: Growth inhibition studies using HUVEC; format: cell-based, human
Experimental: (§1) The following assays (1–5) were carried out as described in our paper (Woods, et al, British Journal of Cancer, 71, 705–711 (1995)). In addition to the cell lines described in this paper, other established human cell lines (K562, HUVEC, H460, BE, H529, and HT29) were used in the cytotoxicity/growth inhibition assay. • (1) Inhibition of tubulin assembly. The figure quoted is the concentration required to reduce assembly of tubulin by 50%. Tubulin assembly is monitored by light scatter/absorption at 350 nm.
(§2) (2) Competition for the colchicine binding site on tubulin. The figure quoted represents the % of ^3H-colchicine bound following co-incubation of test compound and ^3H-cochicine with isolated tubulin. Where ester pro-drugs were used the experiments were carried out in the presence and absence of porcine liver esterase. • (3) Cytotoxicity/growth inhibition assay. This was carried out by the MTT assay. • (4) Permeability (shape-change) assay in endothelial cells. This was carried out using a method based on that of Watts et al. (Anticancer Res., 17, 71–75, (1997)). This involved the diffusion of a fluorescently labelled dextran through a barrier of endothelial cells (HUVEC) grown to confluence on a porous membrane. The effect of agents to alter the shape of these cells results in an increase in the permeability of the cells to the dye. The figure represents the increase in permeability over control cultures when drug is added (30 minutes, 1 mM.). • (5) Experiments to study the anti-vascular effects of these agents were carried out as described previously by our group. (Zhao et al, European Journal of Nuclear Medicine, 26, 231–238 (1999)). The anti-vascular effects of the agents were monitored by either positron emission tomography (PET) or by histologogical examination following treatment of mice bearing T50:80 murine breast tumours, or H460 human lung tumours. • (6) Anti-tumour efficacy of agents was determined in xenografts of H460 human lung cancer. Animals (n=5) were trated either with 5 daily injections and tumour size measured with time following treatment. • (7) The pharmacokinetic profile of agents was determined in mice following injection with drug. Blood was taken at various times following treatment and analysed by HPLC with UV detection. The HPLC conditions were isocratic using a 5 micron C18 BDS column (150×4.6) ad eluting with 75% MeOH in water with a detection wavelength of 290 nm. […] (AND(P)H:quinone oxidoreductace, EC 1.6.99.2). DT-diaphorase is an enzyme over-expressed in a number of human tumours. […] This two-electron reducing enzyme can be used to selectively activate prodrugs within cancers which over-express the enzyme.

[4] = system: T1, tubulin; assay: Inhibition of tubulin assembly; format: biochemical; details: concentration required to reduce assembly of tubulin by 50%
T1 construct: other: concentration required to reduce assembly of tubulin by 50%
Experimental: as §1

[5] = system: colchicine binding site on tubulin; assay: Competition for the colchicine binding site on tubulin
[6] = system: H460 human lung cell line; assay: Cytotoxicity/growth inhibition assay (MTT), H460; format: cell-based
Experimental: as §1, §2

[7] = system: diaphorase null H596 cell line; assay: Cytotoxicity/growth inhibition assay (MTT), H596; format: cell-based; details: for H596/H460: ratio of IC50, diaphorase null H596 over H460
Experimental: as §1
(2) Competition for the colchicine binding site on tubulin. The figure quoted represents the % of ^3H-colchicine bound following co-incubation of test compound and ^3H-cochicine with isolated tubulin. Where ester pro-drugs were used the experiments were carried out in the presence and absence of porcine liver esterase. • (3) Cytotoxicity/growth inhibition assay. This was carried out by the MTT assay. • (4) Permeability (shape-change) assay in endothelial cells. This was carried out using a method based on that of Watts et al. (Anticancer Res., 17, 71–75, (1997)). This involved the diffusion of a fluorescently labelled dextran through a barrier of endothelial cells (HUVEC) grown to confluence on a porous membrane. The effect of agents to alter the shape of these cells results in an increase in the permeability of the cells to the dye. The figure represents the increase in permeability over control cultures when drug is added (30 minutes, 1 mM.). • (5) Experiments to study the anti-vascular effects of these agents were carried out as described previously by our group. (Zhao et al, European Journal of Nuclear Medicine, 26, 231–238 (1999)). The anti-vascular effects of the agents were monitored by either positron emission tomography (PET) or by histologogical examination following treatment of mice bearing T50:80 murine breast tumours, or H460 human lung tumours. • (6) Anti-tumour efficacy of agents was determined in xenografts of H460 human lung cancer. Animals (n=5) were trated either with 5 daily injections and tumour size measured with time following treatment. • (7) The pharmacokinetic profile of agents was determined in mice following injection with drug. Blood was taken at various times following treatment and analysed by HPLC with UV detection. The HPLC conditions were isocratic using a 5 micron C18 BDS column (150×4.6) ad eluting with 75% MeOH in water with a detection wavelength of 290 nm. The retention time of 6.6 mins for 97–64H. • (8) Activation of quinone prodrugs by DT-diaphorase. (AND(P)H:quinone oxidoreductace, EC 1.6.99.2). DT-diaphorase is an enzyme over-expressed in a number of human tumours. We have recently shown this enzyme to be highly expressed in the endothelial cells of blood vessels. This two-electron reducing enzyme can be used to selectively activate prodrugs within cancers which over-express the enzyme. We have therefore synthesised quinone pro-drugs (97–96, 98–40, 98–23, 98–33, 98–24) which, upon reduction by the enzyme, produces an agent (a hydroquinone stilbene) which is cytotoxic.
A series of prodrugs capable of being activated by DT-diaphorase, an enzyme over-expressed in a wide range of human cancers and in endothelial cells of the vasculature were synthesised. The rationale for this is that these agents will be activated in situ by the tumours over-expressing the enzyme, thus giving rise to a high local concentration of active drug. This confers selectivity to this agent. These quinone prodrugs (97–96 and 98–23) were tested for their ability to act as substrates for DT-diaphorase. […] This agent may therefore have a role in the treatment of tumours that over-express DT-diaphorase. Similarly, these agents maybe selectively activated in the endothelial cells of the vasculature, thereby conferring a selective anti-vascular effect.

[8] = target: DT-diaphorase (Homo sapiens, UniProt P15559); assay: Activation of quinone prodrugs by DT-diaphorase; format: biochemical; details: comparable to RH1
Sequence of DT-diaphorase (P15559 whole entry, species assumed, the tested form may be a part): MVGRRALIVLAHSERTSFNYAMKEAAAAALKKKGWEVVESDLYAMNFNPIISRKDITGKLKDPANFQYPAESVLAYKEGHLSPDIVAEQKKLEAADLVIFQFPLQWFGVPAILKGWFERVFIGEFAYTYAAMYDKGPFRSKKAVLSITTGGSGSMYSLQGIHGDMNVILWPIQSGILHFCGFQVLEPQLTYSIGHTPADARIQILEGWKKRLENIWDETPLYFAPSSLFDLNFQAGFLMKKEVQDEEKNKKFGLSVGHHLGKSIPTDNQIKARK
Experimental: (2) Competition for the colchicine binding site on tubulin. The figure quoted represents the % of ^3H-colchicine bound following co-incubation of test compound and ^3H-cochicine with isolated tubulin. Where ester pro-drugs were used the experiments were carried out in the presence and absence of porcine liver esterase. • (3) Cytotoxicity/growth inhibition assay. This was carried out by the MTT assay. • (4) Permeability (shape-change) assay in endothelial cells. This was carried out using a method based on that of Watts et al. (Anticancer Res., 17, 71–75, (1997)). This involved the diffusion of a fluorescently labelled dextran through a barrier of endothelial cells (HUVEC) grown to confluence on a porous membrane. […] The anti-vascular effects of the agents were monitored by either positron emission tomography (PET) or by histologogical examination following treatment of mice bearing T50:80 murine breast tumours, or H460 human lung tumours. • (6) Anti-tumour efficacy of agents was determined in xenografts of H460 human lung cancer. Animals (n=5) were trated either with 5 daily injections and tumour size measured with time following treatment. • (7) The pharmacokinetic profile of agents was determined in mice following injection with drug. Blood was taken at various times following treatment and analysed by HPLC with UV detection. […]

[9] = system: cancer cell growth in vitro; assay: Inhibition of cancer cell growth in vitro (cell line not stated); format: cell-based; details: read-out: IC50, ability to inhibit cancer cell growth in vitro
[10] = system: K562 cells; assay: In situ ultra violet irradiation of dosed K562 cells, IC50; format: cell-based, human; details: K562, in situ, within 2 seconds of exposure; read-out: IC50 after exposure to ultraviolet light
Experimental: Previously, the isomerisation study had been performed ex situ, i.e. in a photochemical reactor. However, it was necessary to illustrate the potential of the process as a real therapy by repeating the isomerization in the presence of the caner cells i.e. in situ. […] Following irradiation, the cells were incubated in the normal way and the IC50 values were determined.
These consisted of i) exposing K562 cells only (i.e. cells which were not dosed with any potential drug candidate) to ultra violet light, ii) preventing K562 cells dosed with drug candidate from being exposed to ultra violet light, and iii) preventing K562 cells only (i.e. cells which were not dosed with any potential drug candidate) from being exposed to ultra violet light. […]

[11] = system: cancer cell growth in vitro; details: background; cited from earlier work
[12] = system: K562; assay: K562 cell cycle analysis; format: cell-based, human
[13] = background; cited from earlier work

IC50 [4]: < 1.25 µM
Colchicine % Inhibition [5]: 1.4%
Compound: COc1cc(C=Cc2ccc(C)c(O)c2)cc(OC)c1OC [Compound 98-21]
pIC50 ([1]; Homo sapiens, A2780): 9.18
pIC50 ([2]; Mus musculus, P388, MTT): 9.03
pIC50 ([3]; Homo sapiens, HUVEC): 8.02

Compound: COc1cc(/C=C\C2=CC(=O)C(C)=CC2=O)cc(OC)c1OC [Compound 98-23]
pIC50 [1]: 5.67
IC50 [1]: 2150 nM
pIC50 [2]: 5.66
pIC50 ([2]; MTT): 5.66
pIC50 [6]: 5.36
pIC50 [7]: 5.64
H596/H460 [7]: 0.52
ability to act as substrate for DT-diaphorase [8]: good substrates for the enzyme

Compound: COC1=CC(=O)C(CCc2cc(OC)c(OC)c(OC)c2)=CC1=O [Compound 98-24]
IC50 ([1]; Homo sapiens, A2780): 1630 nM
pIC50 ([2]; Mus musculus, P388): 4.77
pIC50 ([6]; Homo sapiens, NCI-H460): 5.51
pIC50 ([7]; Homo sapiens, NCI-H596): 5.71
H596/H460 [7]: 0.63

Compound: COc1ccc(C=Cc2cc(OC)c(OC)c(OC)c2)cc1OCc1ccccc1[N+](=O)[O-] [Compound 98-29]
pIC50 ([1]; Homo sapiens, A2780): 6.42
pIC50 ([2]; Mus musculus, P388, MTT): 6.35
pIC50 ([3]; Homo sapiens, HUVEC): 6.37
IC50 [4]: > 100 µM
Colchicine % Inhibition [5]: 53%

Compound: COc1cc(/C=C/C2=CC(=O)C(C)=CC2=O)cc(OC)c1OC [Compound 98-33]
IC50 [1]: 950 nM
pIC50 [2]: > 6.11
pIC50 [6]: 5.39
pIC50 [7]: 5.83
H596/H460 [7]: 0.36

IC50 [4]: 6.25 µM
Colchicine % Inhibition [5]: 5%
Compound: COc1cc(/C=C\c2ccc(C)c(F)c2)cc(OC)c1OC [Compound 98-35H]
pIC50 [1]: 8.84
pIC50 ([2]; MTT): 8.48
pIC50 [3]: 7.80

Compound: c1ccc2c(c1)ccc1ccccc12 [phenanthrene]
pIC50 [9]: 6.15

Compound: COc1ccc(/C=C/c2cc(OC)c(OC)c(OC)c2)cc1O [trans-CA-4, trans-combretastatin A-4, reference compound]
pIC50 [10]: 8.70
inhibits cell growth [11]: μM range

Compound: cis-combretastatin A-4 [Compound 1, reference compound]
% of cells in G0–G1 [12]: 3%
% of cells in G2-M [12]: 92%
% of cells in S phase [12]: 6%
% of cells with DNA content <2 n [12]: 7%
water solubility [13]: poor water solubility
